The text below walks through data of PubChem BioAssay AID212 (DTP/NCI, 2004).

Values joined by “and” are separate entries in the source; they are usually repeats but may differ in a detail not shown here. Identical values can stand only once. Results filed as inconclusive are left out.

For this assay, the system named is BDF1 mice, colon carcinoma 38 sc, T/C %. The assay can be described thus: NCI In Vivo Anticancer Drug Screen. Data for tumor model Colon Carcinoma 38 (subcutaneous) in B6D2F1 (BDF1) mice. The gist of the method: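 T/C readout: treated group (T) measurement over vehicle control group (C) measurement. Endpoint is survival or tumor size in mice bearing a transplanted tumor.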

[1] abbreviates: endpoint: median tumor weight (est.), dose: 50.0 mg/kg/injection, schedule: Q07DX002 (ip), vehicle: Klucel (hydroxypropylcellulose) (HPC), higher = larger tumour.
[2] abbreviates: endpoint: median tumor weight (est.), dose: 100.0 mg/kg/injection, schedule: Q07DX002 (ip), vehicle: Klucel (hydroxypropylcellulose) (HPC), higher = larger tumour.
Where [3] appears, read: endpoint: median tumor weight (est.), dose: 200.0 mg/kg/injection, schedule: Q07DX002 (ip), vehicle: Klucel (hydroxypropylcellulose) (HPC), higher = larger tumour.
The mark [4] stands for this setting: endpoint: median tumor weight (est.), dose: 1.0 mg/kg/injection, schedule: Q07DX002 (ip), vehicle: saline, higher = larger tumour.
Setting [5] is: endpoint: median tumor weight (est.), dose: 2.0 mg/kg/injection, schedule: Q07DX002 (ip), vehicle: saline, higher = larger tumour.
Setting [6] is: endpoint: median tumor weight (est.), dose: 12.5 mg/kg/injection, schedule: Q07DX002 (ip), vehicle: saline with Tween-80, higher = larger tumour.
Where [7] appears, read: endpoint: median tumor weight (est.), dose: 25.0 mg/kg/injection, schedule: Q07DX002 (ip), vehicle: saline with Tween-80, higher = larger tumour.
[8] abbreviates: endpoint: median tumor weight (est.), dose: 50.0 mg/kg/injection, schedule: Q07DX002 (ip), vehicle: saline with Tween-80, higher = larger tumour.
[9] abbreviates: endpoint: median tumor weight (est.), dose: 100.0 mg/kg/injection, schedule: Q07DX002 (ip), vehicle: saline with Tween-80, higher = larger tumour.
[10] abbreviates: endpoint: median tumor weight (est.), dose: 200.0 mg/kg/injection, schedule: Q07DX002 (ip), vehicle: saline with Tween-80, higher = larger tumour.
Setting [11] is: endpoint: median tumor weight (est.), dose: 400.0 mg/kg/injection, schedule: Q07DX002 (ip), vehicle: saline with Tween-80, higher = larger tumour.
The mark [12] stands for this setting: endpoint: median tumor weight (est.), dose: 25.0 mg/kg/injection, schedule: Q07DX002 (ip), vehicle: saline, higher = larger tumour.
[13] abbreviates: endpoint: median tumor weight (est.), dose: 50.0 mg/kg/injection, schedule: Q07DX002 (ip), vehicle: saline, higher = larger tumour.
Setting [14] is: endpoint: median tumor weight (est.), dose: 200.0 mg/kg/injection, schedule: Q07DX002 (ip), vehicle: saline, higher = larger tumour.
[15] abbreviates: endpoint: median tumor weight (est.), dose: 800.0 mg/kg/injection, schedule: Q07DX002 (ip), vehicle: saline, higher = larger tumour.
Setting [16] is: endpoint: median tumor weight (est.), dose: 3.12 mg/kg/injection, schedule: Q07DX002 (ip), vehicle: saline with Tween-80, higher = larger tumour.

Turning to `C[C@]12CCC(=O)C(O)=C1CC[C@@H]1[C@@H]2CC[C@]2(C)C(=O)CC[C@@H]12`, the T/C (endpoint: median tumor weight (est.), dose: 25.0 mg/kg/injection, schedule: Q07DX002 (ip), vehicle: Klucel (hydroxypropylcellulose) (HPC), higher = larger tumour) is 82 % of control; the T/C under setting [1] was 110 % of control and 101 % of control; the T/C under setting [2] is 176 % of control and 186 % of control; the T/C under setting [3] is 59 % of control and 84 % of control.

For `Cc1c(N)nc(C(CC(N)=O)NCC(N)C(N)=O)nc1C(=O)NC(C(=O)NC(C)C(O)C(C)C(=O)NC(C(=O)NCCc1nc(-c2nc(C(=O)NCCCNC(C)c3ccccc3)cs2)cs1)C(C)O)C(OC1OC(CO)C(O)C(O)C1OC1OC(CO)C(O)C(OC(N)=O)C1O)c1cnc[nH]1` (stereo unspecified), the T/C was 75 % of control (endpoint: median tumor weight (est.), dose: 0.5 mg/kg/injection, schedule: Q07DX003 (ip), vehicle: saline, higher = larger tumour); 66 % of control under setting [4]; 90 % of control (endpoint: median tumor weight (est.), dose: 1.0 mg/kg/injection, schedule: Q07DX003 (ip), vehicle: saline, higher = larger tumour); 75 % of control under setting [5]; 102 % of control (endpoint: median tumor weight (est.), dose: 2.0 mg/kg/injection, schedule: Q07DX003 (ip), vehicle: saline, higher = larger tumour); 62 % of control (endpoint: median tumor weight (est.), dose: 4.0 mg/kg/injection, schedule: Q07DX003 (ip), vehicle: saline, higher = larger tumour). The T/C is 83 % of control (endpoint: median tumor weight (est.), dose: 8.0 mg/kg/injection, schedule: Q07DX003 (ip), vehicle: saline, higher = larger tumour); 92 % of control (endpoint: median tumor weight (est.), dose: 16.0 mg/kg/injection, schedule: Q07DX003 (ip), vehicle: saline, higher = larger tumour); 29 % of control (endpoint: median tumor weight (est.), dose: 32.0 mg/kg/injection, schedule: Q07DX002 (ip), vehicle: saline, higher = larger tumour).

For `[Cl][Pt+2][Cl].[NH-]C1CCC1.[NH2-]`, the T/C was 95 % of control (endpoint: median tumor weight (est.), dose: 1.5 mg/kg/injection, schedule: Q07DX002 (ip), vehicle: saline, higher = larger tumour); 64 % of control (endpoint: median tumor weight (est.), dose: 3.0 mg/kg/injection, schedule: Q07DX002 (ip), vehicle: saline, higher = larger tumour); 43 % of control and 49 % of control (endpoint: median tumor weight (est.), dose: 12.0 mg/kg/injection, schedule: Q07DX002 (ip), vehicle: saline, higher = larger tumour); 13 % of control (endpoint: median tumor weight (est.), dose: 24.0 mg/kg/injection, schedule: Q07DX002 (ip), vehicle: saline, higher = larger tumour).

For `Cc1c2cc(Cl)c3ccccc3c2c[n+]2ccccc12`, the T/C runs as follows: under setting [6], 94 % of control and 102 % of control; under setting [7], 116 % of control; under setting [8], 108 % of control and 111 % of control; under setting [9], 88 % of control and 98 % of control; under setting [10], 99 % of control; under setting [11], 120 % of control.

In the case of `CN(C)C=O`, the T/C is, setting by setting: under setting [12], 45 % of control; under setting [13], 83 % of control; under setting [14], 89 % of control; (endpoint: median tumor weight (est.), dose: 400.0 mg/kg/injection, schedule: Q07DX002 (ip), vehicle: saline, higher = larger tumour) 89 % of control and 92 % of control; under setting [15], 115 % of control.

For `CC(=O)OC1COC(NC(=O)N(CCCl)N=O)C(OC(C)=O)C1OC(C)=O` (stereo unspecified), the T/C is, setting by setting: (endpoint: median tumor weight (est.), dose: 0.75 mg/kg/injection, schedule: Q07DX002 (ip), vehicle: saline with Tween-80, higher = larger tumour) 92 % of control; (endpoint: median tumor weight (est.), dose: 1.5 mg/kg/injection, schedule: Q07DX002 (ip), vehicle: saline with Tween-80, higher = larger tumour) 84 % of control; (endpoint: median tumor weight (est.), dose: 3.0 mg/kg/injection, schedule: Q07DX002 (ip), vehicle: saline with Tween-80, higher = larger tumour) 66 % of control; (endpoint: median tumor weight (est.), dose: 6.0 mg/kg/injection, schedule: Q07DX002 (ip), vehicle: saline with Tween-80, higher = larger tumour) 92 % of control; (endpoint: median tumor weight (est.), dose: 12.0 mg/kg/injection, schedule: Q07DX002 (ip), vehicle: saline with Tween-80, higher = larger tumour) 44 % of control.

Turning to `Oc1cc2ccccc2c(-c2c(O)c(O)cc3ccccc23)c1O`, the T/C is 94 % of control under setting [6]; 119 % of control under setting [7]; 114 % of control under setting [8]; 81 % of control under setting [9]; 64 % of control under setting [10]; 64 % of control under setting [11].

Take `O=c1ccc2ccccc2o1`: the T/C by setting is: under setting [1], 115 % of control; under setting [2], 118 % of control; under setting [3], 118 % of control.

`COC(C(=O)C(O)C(C)O)C1Cc2cc3cc(OC4CC(OC(C)=O)C(OC5CC(O)C(OC)C(C)O5)C(C)O4)cc(O)c3c(O)c2C(=O)C1OC1CC(OC2CC(OC3CC(C)(O)C(OC(=O)C(C)C)C(C)O3)C(O)C(C)O2)C(O)C(C)O1` (stereo unspecified): the T/C was 113 % of control (endpoint: median tumor weight (est.), dose: 0.12 mg/kg/injection, schedule: Q07DX002 (ip), vehicle: saline with Tween-80, higher = larger tumour); 81 % of control (endpoint: median tumor weight (est.), dose: 0.25 mg/kg/injection, schedule: Q07DX002 (ip), vehicle: saline, higher = larger tumour); 113 % of control (endpoint: median tumor weight (est.), dose: 0.5 mg/kg/injection, schedule: Q07DX002 (ip), vehicle: saline with Tween-80, higher = larger tumour); 78 % of control (endpoint: median tumor weight (est.), dose: 0.5 mg/kg/injection, schedule: Q07DX002 (ip), vehicle: saline, higher = larger tumour); 59 % of control (endpoint: median tumor weight (est.), dose: 1.0 mg/kg/injection, schedule: Q07DX002 (ip), vehicle: saline with Tween-80, higher = larger tumour); 89 % of control under setting [4]. Besides, the T/C is 55 % of control (endpoint: median tumor weight (est.), dose: 2.0 mg/kg/injection, schedule: Q07DX002 (ip), vehicle: saline with Tween-80, higher = larger tumour); 124 % of control under setting [5]; 48 % of control (endpoint: median tumor weight (est.), dose: 4.0 mg/kg/injection, schedule: Q07DX002 (ip), vehicle: saline with Tween-80, higher = larger tumour); 92 % of control (endpoint: median tumor weight (est.), dose: 4.0 mg/kg/injection, schedule: Q07DX002 (ip), vehicle: saline, higher = larger tumour).

For `O=c1s[se]c2ccccc12`, the T/C is 73 % of control under setting [16], 90 % of control under setting [6], 83 % of control under setting [7] and 117 % of control under setting [8].

As for `C1CN2CN3CCN(CN1C3)C2`, the T/C under setting [12] is 111 % of control; the T/C (endpoint: median tumor weight (est.), dose: 100.0 mg/kg/injection, schedule: Q07DX002 (ip), vehicle: saline, higher = larger tumour) is 166 % of control; the T/C under setting [14] is 115 % of control.

Turning to `CC(C)(C)N1CC1CNC(=O)C(=O)NCC1CN1C(C)(C)C` (stereo unspecified), the T/C under setting [16] is 81 % of control and 106 % of control.

As to `O=C(O)CC(=O)O.[NH-]CC[NH-].[Pt+2]`, the T/C by setting is: (endpoint: median tumor weight (est.), dose: 14.1 mg/kg/injection, schedule: Q07DX002 (ip), vehicle: dextrose, higher = larger tumour) 71 % of control and 85 % of control; (endpoint: median tumor weight (est.), dose: 28.1 mg/kg/injection, schedule: Q07DX002 (ip), vehicle: dextrose, higher = larger tumour) 69 % of control; (endpoint: median tumor weight (est.), dose: 28.2 mg/kg/injection, schedule: Q07DX002 (ip), vehicle: dextrose, higher = larger tumour) 71 % of control and 75 % of control; (endpoint: median tumor weight (est.), dose: 56.2 mg/kg/injection, schedule: Q07DX002 (ip), vehicle: dextrose, higher = larger tumour) 42 % of control.

Take `C=C1C(C2(C)C(OC(C)=O)CC(=O)OC(C)(COC(C)=O)C2CC(=O)OC)C(OC=O)C(OC(=O)C(O)C(C)CC)C2(C)C(c3ccoc3)CC(=O)C12O` (stereo unspecified): the T/C is, setting by setting: (endpoint: median tumor weight (est.), dose: 3.0 mg/kg/injection, schedule: Q07DX002 (ip), vehicle: Klucel (hydroxypropylcellulose) (HPC), higher = larger tumour) 64 % of control; (endpoint: median tumor weight (est.), dose: 6.0 mg/kg/injection, schedule: Q07DX002 (ip), vehicle: Klucel (hydroxypropylcellulose) (HPC), higher = larger tumour) 68 % of control; (endpoint: median tumor weight (est.), dose: 12.0 mg/kg/injection, schedule: Q07DX002 (ip), vehicle: Klucel (hydroxypropylcellulose) (HPC), higher = larger tumour) 77 % of control; (endpoint: median tumor weight (est.), dose: 24.0 mg/kg/injection, schedule: Q07DX002 (ip), vehicle: Klucel (hydroxypropylcellulose) (HPC), higher = larger tumour) 90 % of control; (endpoint: median tumor weight (est.), dose: 48.0 mg/kg/injection, schedule: Q07DX002 (ip), vehicle: Klucel (hydroxypropylcellulose) (HPC), higher = larger tumour) 61 % of control.

Regarding `CC(=O)OCC1OC(n2ccc(N)nc2=O)C(OC(C)=O)C1OC(C)=O` (stereo unspecified), the T/C under setting [12] was 113 % of control and 92 % of control; the T/C under setting [13] was 97 % of control and 104 % of control; the T/C under setting [15] was 30 % of control and 36 % of control.

With `CO[C@H]1C[C@](C)(O)Cc2cc3c(c(O)c21)C(=O)c1c(O)cc2c(c1C3=O)O[C@@H]1O[C@@]2(C)[C@H](O)[C@@H](N(C)C)[C@@H]1O`, the T/C reads like this: (endpoint: median survival time, dose: 72.0 mg/kg/injection, schedule: Q07DX003 (sc), vehicle: other, higher = longer survival) 166 % of control; (endpoint: median tumor weight (est.), dose: 12.5 mg/kg/injection, schedule: Q07DX002 (ip), vehicle: other, higher = larger tumour) 69 % of control; (endpoint: median tumor weight (est.), dose: 25.0 mg/kg/injection, schedule: Q07DX002 (ip), vehicle: other, higher = larger tumour) 21 % of control and 41 % of control; (endpoint: median tumor weight (est.), dose: 50.0 mg/kg/injection, schedule: Q07DX002 (ip), vehicle: other, higher = larger tumour) 1 % of control.
